≈ marks a conversion by molar mass, not a printed value.
Experiments:
[1] = Inhibition of GST-tagged DLK (1 to 520 residues)(unknown origin) using MKK4 as substrate preincubated for 60 mins followed by substrate/ATP addition measured after 30 mins by HTRF assay; set-up: species or system Homo sapiens
[2] = Kinetic solubility of compound at pH 6.8; assay type: physicochemical; conditions: buffer, read-out: Kinetic_solubility
[3] = Inhibition of human DLK transfected in HEK293-T-REx cells assessed as decrease in JNK phosphorylation incubated for 5 hrs by HTRF assay; assay type: cell-based
[4] = target: Voltage-gated inwardly rectifying potassium channel KCNH2 (Homo sapiens, UniProt Q12809); assay: Inhibition of hERG by patch-clamp method; assay type: toxicity
Voltage-gated inwardly rectifying potassium channel KCNH2, sequence (Q12809 whole entry): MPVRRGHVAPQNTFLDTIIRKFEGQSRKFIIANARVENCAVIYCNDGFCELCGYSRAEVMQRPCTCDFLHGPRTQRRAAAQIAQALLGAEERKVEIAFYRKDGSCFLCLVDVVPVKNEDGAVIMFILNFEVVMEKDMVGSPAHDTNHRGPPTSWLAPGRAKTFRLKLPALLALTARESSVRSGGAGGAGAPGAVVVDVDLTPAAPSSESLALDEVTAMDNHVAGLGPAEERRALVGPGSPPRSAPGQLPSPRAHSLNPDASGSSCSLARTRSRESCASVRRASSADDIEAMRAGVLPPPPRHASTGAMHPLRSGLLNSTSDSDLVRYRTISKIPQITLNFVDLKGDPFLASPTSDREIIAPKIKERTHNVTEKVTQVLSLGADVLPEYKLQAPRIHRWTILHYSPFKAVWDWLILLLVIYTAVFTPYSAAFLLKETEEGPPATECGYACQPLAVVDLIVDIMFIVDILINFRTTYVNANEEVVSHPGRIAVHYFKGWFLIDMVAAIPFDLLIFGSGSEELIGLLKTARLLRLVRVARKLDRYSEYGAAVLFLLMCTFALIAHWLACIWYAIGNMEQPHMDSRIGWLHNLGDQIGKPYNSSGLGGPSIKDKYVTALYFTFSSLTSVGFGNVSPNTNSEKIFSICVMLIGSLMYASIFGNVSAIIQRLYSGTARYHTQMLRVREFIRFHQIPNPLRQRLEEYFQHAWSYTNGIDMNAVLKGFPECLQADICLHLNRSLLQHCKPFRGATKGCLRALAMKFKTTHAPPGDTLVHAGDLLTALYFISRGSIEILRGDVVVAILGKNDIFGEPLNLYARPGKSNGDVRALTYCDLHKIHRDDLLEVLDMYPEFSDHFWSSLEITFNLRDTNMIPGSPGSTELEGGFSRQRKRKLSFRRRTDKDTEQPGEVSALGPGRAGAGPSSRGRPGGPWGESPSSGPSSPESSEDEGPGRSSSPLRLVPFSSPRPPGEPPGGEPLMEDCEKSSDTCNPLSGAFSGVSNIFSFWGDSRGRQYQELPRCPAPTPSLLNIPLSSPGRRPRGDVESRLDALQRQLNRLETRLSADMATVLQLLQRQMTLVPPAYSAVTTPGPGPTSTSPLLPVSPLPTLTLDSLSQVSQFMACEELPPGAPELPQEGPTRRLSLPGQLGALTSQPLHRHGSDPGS

CYP3A4 = CYP3A4 (Homo sapiens, UniProt P08684); assay: Time dependent inhibition of CYP3A4 (unknown origin) at 30 uM incubated for 30 mins relative to control; assay type: ADME; conditions: read-out: TDI
CYP3A4, sequence (P08684 whole entry): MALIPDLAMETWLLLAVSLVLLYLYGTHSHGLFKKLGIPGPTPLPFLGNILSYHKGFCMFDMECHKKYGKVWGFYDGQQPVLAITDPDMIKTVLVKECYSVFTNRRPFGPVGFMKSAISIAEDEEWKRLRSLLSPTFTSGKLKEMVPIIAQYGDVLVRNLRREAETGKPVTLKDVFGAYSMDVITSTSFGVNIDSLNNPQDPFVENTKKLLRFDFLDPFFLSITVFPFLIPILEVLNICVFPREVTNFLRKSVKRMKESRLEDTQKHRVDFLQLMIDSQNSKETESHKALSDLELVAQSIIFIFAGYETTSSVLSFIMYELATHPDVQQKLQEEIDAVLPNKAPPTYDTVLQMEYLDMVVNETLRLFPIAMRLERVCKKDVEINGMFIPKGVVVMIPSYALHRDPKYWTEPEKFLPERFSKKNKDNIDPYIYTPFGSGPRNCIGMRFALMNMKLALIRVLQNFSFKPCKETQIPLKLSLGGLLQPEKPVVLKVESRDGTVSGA

[5] = Ratio of unbound drug concentration in brain to plasma of mouse at 5 mg/kg; assay type: ADME, organism-based; conditions: brain and plasma, read-out: K(p,uu,brain)
[6] = Energy of neutralization, pKa of compound; assay type: physicochemical
[7] = Intrinsic clearance in mouse liver microsomes; assay type: ADME, Microsome; conditions: read-out: CLH
[8] = Intrinsic clearance in human liver microsomes; assay type: ADME, Microsome; conditions: read-out: CLH
[9] = Efflux ratio in MDCK-MDR1 cells; assay type: ADME, cell-based, Canis lupus familiaris; conditions: dog
[10] = Apparent permeability across apical to basal side in MDCK-MDR1 cells; assay type: ADME, cell-based, Canis lupus familiaris; conditions: dog

SMILES	Ki [1] [nM]	IC50 [3] [nM]	further results
CC(C)c1ccc2c(-c3cnc(N)c(C(F)(F)F)c3)ncn2c1	9.2	490	solubility kinetic [2]: 10 µM (≈ 3.2 µg/mL)
CO[C@H](C)c1nc(-c2cnc(N)c(C(F)(F)F)c2)c2ccc(C3CCN(C)CC3)cn12	1.2	54	IC50 [4]: 1300 nM
Nc1ncc(-c2cn(C3CCC3)c3cccnc23)cc1C(F)(F)F	194		
CCc1nc(-c2cnc(N)c(OC(F)(F)F)c2)c2ccc([C@H]3CC(=O)N(C)C3)cn12	0.77	70	inhibition at 0.5 h, 30 µM (CYP3A4): 81%
CCn1nc(-c2cnc(N)c(C(F)(F)F)c2)c2ccn([C@@H]3CCOC[C@@H]3OC3CC3)c(=O)c21	1.8	180	Kp uu [5]: 0.24
Nc1ncc(-c2c[nH]c3cccnc23)cc1C(F)(F)F	194		
CCc1nc(-c2cnc(N)c(C(F)(F)F)c2)c2ccc([C@H]3CN(C)CCO3)cn12	2.5	100	IC50 [4]: 6900 nM; pKa [6]: 6.8
CN1CCC(c2ccc3c(-c4cnc(N)c(C(F)(F)F)c4)nc(C(F)(F)F)n3c2)CC1	2.1	94	solubility kinetic [2]: 76 µM (≈ 33.7 µg/mL)
Nc1ncc(-c2cc3cn[nH]c3cn2)cc1C(F)(F)F	421		
CCn1nc(-c2cnc(N)c(OC(F)(F)F)c2)c2ccn(C3COC3)c(=O)c21	10.5	440	microsomal CLint [7]: 24 µL/min/mg; Kp uu [5]: 0.5; microsomal CLint [8]: 9.2 µL/min/mg
CCc1nc(-c2cnc(N)c(OC(F)(F)F)c2)c2ccc([C@@]3(C)COCCN3C)cn12	0.47	29	inhibition at 0.5 h, 30 µM (CYP3A4): 62%
Nc1ncc(-c2cc3cn[nH]c3c(C3CC3)n2)cc1C(F)(F)F	59		
CCn1nc(-c2cnc(N)c(OC(F)(F)F)c2)c2ccc([C@H]3COCCN3C)cc21	1.2	103	Kp uu [5]: 0.42; efflux ratio [9]: 0.4; inhibition at 0.5 h, 30 µM (CYP3A4): 15%; Papp A→B [10]: 24.1 ×10⁻⁶ cm/s
CCn1nc(-c2cnc(N)c(OC(F)(F)F)c2)c2ccn([C@@H](C)C3CC3)c(=O)c21	1.5	110	microsomal CLint [7]: 10 µL/min/mg; Kp uu [5]: 0.38; microsomal CLint [8]: < 4 µL/min/mg
CCn1nc(-c2cnc(N)c(OC(F)(F)F)c2)c2ccn(C3CCN(C4COC4)CC3)c(=O)c21	3	130	microsomal CLint [7]: 8.3 µL/min/mg; Kp uu [5]: 0.15; microsomal CLint [8]: 7.9 µL/min/mg
Nc1ncc(-c2ncn3cc(C4CCN(C5COC5)CC4)ccc23)cc1C(F)(F)F	3.2	134	solubility kinetic [2]: 6 µM (≈ 2.5 µg/mL)
CCn1nc(-c2cnc(N)c(OC(F)(F)F)c2)c2ccn([C@@H]3CCOC[C@H]3OC)c(=O)c21	1.9	85	microsomal CLint [7]: 24 µL/min/mg; Kp uu [5]: 0.43; microsomal CLint [8]: 9.3 µL/min/mg
CCn1nc(-c2cnc(N)c(OC(F)(F)F)c2)c2ccn(C3CCN(C)CC3)c(=O)c21	2.5	130	microsomal CLint [7]: 4 µL/min/mg; Kp uu [5]: 0.38; microsomal CLint [8]: < 3 µL/min/mg
CCn1nc(-c2cnc(N)c(OC(F)F)c2)c2ccn([C@H]3CCOC[C@H]3OC3CCC3)c(=O)c21	0.65	35	
CCn1nc(-c2cnc(N)c(OC(F)F)c2)c2ccn([C@H]3CCOC[C@H]3OC3CC3)c(=O)c21	0.58	32	Kp uu [5]: 0.15
CN1CCOC[C@H]1c1ccc2c(-c3cnc(N)c(OC(F)(F)F)c3)nc(C(F)(F)F)n2c1	3.5	300	inhibition at 0.5 h, 30 µM (CYP3A4): 33%
CCc1nc(-c2cnc(N)c(OC(F)(F)F)c2)c2cc(Cl)c([C@H]3COCCN3C)cn12	7.1	450	inhibition at 0.5 h, 30 µM (CYP3A4): 67%
CCc1nc(-c2cnc(N)c(OC(F)(F)F)c2)c2ccc([C@H]3COCC(=O)N3C)cn12	0.26	33	inhibition at 0.5 h, 30 µM (CYP3A4): 65%
CC(C)n1cc(-c2cnc(N)c(C(F)(F)F)c2)c2nc(C3CC3)ccc21	27		
CCc1nc(-c2cnc(N)c(OC(F)(F)F)c2)c2ccn(C3CCOCC3)c(=O)n12	2	190	inhibition at 0.5 h, 30 µM (CYP3A4): 87%
CCc1nc(-c2cnc(N)c(OC(F)(F)F)c2)c2ccc(C3(N4CCOCC4)CC3)cn12	0.7	31	IC50 [4]: 17000 nM; pKa [6]: 5.1
CN1CCC(Cc2ccc3c(-c4cnc(N)c(C(F)(F)F)c4)ncn3c2)CC1	4.5	405	solubility kinetic [2]: 68 µM (≈ 26.5 µg/mL)
